From patent EP1083873B1 (MGI GP, Inc., priority 1998, dated 1999) come the findings set out here.

The target of one test is FKBP12 (Homo sapiens, UniProt P62942). The test can be described thus: Ki test procedure: inhibition of peptidyl-prolyl isomerase (rotamase) activity, chymotrypsin-coupled assay. The format is biochemical. The source says:
The inhibition of the prolyl peptidyl cis-trans isomerase activity of FKBP may be measured as an indicator of this affinity.
Inhibition of the peptidyl-prolyl isomerase (rotamase) activity of the compounds used in the inventive methods and pharmaceutical compositions can be evaluated by known methods described in the literature (Harding et al., Nature, 1989, 341:758-760; Holt et al. J. Am. Chem. Soc., 115:9923-9938).
The cis-trans isomerization of an alanine-proline bond in a model substrate, N-succinyl-Ala-Ala-Pro-Phe-p-nitroanilide, is monitored spectrophotometrically in a chymotrypsin-coupled assay, which releases paranitroanilide from the trans form of the substrate. The inhibition of this reaction caused by the addition of different concentrations of inhibitor is determined, and the data is analyzed as a change in first-order rate constant as a function of inhibitor concentration to yield the apparent Ki values.
In a plastic cuvette are added […] of ice cold assay buffer (25 mM HEPES, pH 7.8, 100 mM NaCl), 10 mL of FKBP (2.5 mM in 10 mM Tris-Cl pH 7.5, 100 mM NaCl, 1 mM dithiothreitol), […] of chymotrypsin (50 mg/ml in 1 mM HCl) and […] of test compound at various concentrations in dimethyl sulfoxide. The reaction is initiated by the addition of 5 mL of substrate (succinyl-Ala-Phe-Pro-Phe-para-nitroanilide, 5 mg/mL in 2.35 mM LiCl in trifluoroethanol).
The absorbance at 390 nm versus time is monitored for 90 seconds using a spectrophotometer and the rate constants are determined from the absorbance versus time data files.

Test [1] concerns C57 black 6 mice. The test can be described thus: In vivo hair generation test, Experiment A (shaved C57 black 6 mice, topical). To be noted: 30 µM topical in 20% propylene glycol, 3 applications over 5 days, after six weeks. The source says:
Care was taken not to nick or cause abrasion to the underlaying dermal layers. The animals were in anagen growth phase, as indicated by the pinkish color of the skin. […] Hair growth was quantitated by the percent of shaved area covered by new hair growth during this time period.

Test [2] concerns C57 black 6 mice. Kind of test: In vivo hair generation test, Experiment B (shaved C57 Black 6 mice, topical, 14 days). To be noted: one micromole per milliliter topical, three times per week, 14 days after initiation of treatment. How it is done: Care was taken not to nick or cause abrasion to the underlying dermal layers. The animals were in anagen growth phase when shaved. […] The animals were treated three times per week, and hair growth was evaluated 14 days after initiation of treatment.

Where two headings read alike, the source gives them in different places.

Sequence of FKBP12 (P62942 whole entry, species assumed): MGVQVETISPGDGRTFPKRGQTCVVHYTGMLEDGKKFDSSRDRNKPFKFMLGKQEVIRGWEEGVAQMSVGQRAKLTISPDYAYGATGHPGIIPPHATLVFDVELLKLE

Consider `CCC(C)(C)C(=O)C(=O)N1CCC[C@H]1C(=O)SCc1csc2ccccc12` [Compound 11, (3-Thioindolyl) methyl (2S) -1-(3,3-dimethyl-1,2-dioxopentyl)-2-pyrrolidinecarbothioate], for which the Ki on FKBP12 (apparent Ki, rotamase inhibition, read-out: Ki) is 299 nM. Compound `O=C(C(=O)N1CCC[C@H]1C(=O)SCCc1ccccc1)C1CCCCC1` [Compound 12] returned a Ki on FKBP12 of 442 nM. Still for that read-out and setting: under `O=C(C(=O)N1CCCCC1C(=O)SCCc1ccccc1)c1ccccc1` (stereo not drawn) [Compound 14] stands 313 nM; under `CC(C)(C)C(=O)C(=O)N1CCCCC1C(=O)SCCCc1ccccc1` (stereo not drawn) [Compound 29], 59 nM; under `O=C(C(=O)N1CCC[C@H]1C(=O)SCCCCc1ccccc1)C1CCCCC1` [Compound 33], 1700 nM. Compound `O=C(C(=O)N1CCC[C@H]1C(=O)SCCCc1cccnc1)C1CCCCC1` [Compound 35] had a Ki at FKBP12 of 62 nM. The same measure, in the same setting: under `CC(C)(C)C(=O)C(=O)N1CCCCC1C(=O)SCCCCc1ccccc1` (stereo not drawn) [Compound 39] stands 347 nM; under `COc1ccc(CCCSC(=O)C2CCCCN2C(=O)C(=O)c2ccccc2)cc1` (stereo not drawn) [Compound 43], 259 nM.

On to `CCC(C)(C)C(=O)C(=O)N1CCCC1C(=O)SCCCC(c1ccc(F)cc1)c1ccc(F)cc1` (stereo not drawn) [Compound 46], for which the Ki at FKBP12 is 757 nM.

As to `CCC(C)(C)C(=O)C(=O)N1CCC[C@H]1C(=O)SCCCc1cccc2ccccc12` [Compound 47], the Ki at FKBP12 was 21 nM. For `CCC(C)(C)C(=O)C(=O)N1CCCCC1C(=O)SCCCc1ccc2ccccc2c1` [Compound 53, 3-(2-Naphthyl)propyl (2R, S) -1-(3,3-dimethyl-2-oxopentanoyl)-2-piperidinecarbothioate], the Ki at FKBP12 (apparent Ki, rotamase inhibition) is 261 nM. Compound `CCC(C)(C)C(=O)C(=O)N1CCC[C@H]1C(=O)SCCCc1cccc(Cl)c1` [Compound 54] gave a Ki on FKBP12 of 37 nM.

For `CCC(C)(C)C(=O)C(=O)N1CCC[C@H]1C(=O)SCCCc1ccccc1F` [Compound 57], at FKBP12, the Ki is 57 nM. Still for that read-out and setting: under `CCC(C)(C)C(=O)C(=O)N1CCC[C@H]1C(=O)SCCCc1cccc(F)c1` [Compound 58] stands 79 nM; under `CCC(C)(C)C(=O)C(=O)N1CCCCC1C(=O)SCCCCc1ccccc1` (stereo not drawn) [Compound 59], 962 nM; under `CCC(C)(C)C(=O)C(=O)N1CCCCC1C(=O)SCCCc1ccccc1` (stereo not drawn) [Compound 60], 90 nM. `CCC(C)(C)C(=O)C(=O)N1CCC[C@H]1C(=O)SCCCc1ccccc1Cl` [Compound 61] gave a Ki at FKBP12 of 139 nM. Same read-out and setting: then `CCC(C)(C)C(=O)C(=O)N1CCCCC1C(=O)SCCCc1cccc(F)c1` (stereo not drawn) [Compound 64], with 163 nM. As for `CCC(C)(C)C(=O)C(=O)N1CCC[C@H]1C(=O)OCCCc1cccnc1` [GPI 1046, 3-(3-pyridyl)-1-propyl (2s)-1-(3,3-dimethyl-1,2-dioxopentyl)-2-pyrrolidinecarboxylate], the “hair regrowth in the shaved area” value in the test on C57 black 6 mice [1] is “essentially complete hair regrowth”. Take `CCC(C)(C)C(=O)C(=O)N1CCC[C@H]1C(=O)SCCC(c1ccccc1)c1ccccc1` [GPI 1234]: the “hair growth (Figure 5, relative hair growth index)” value with C57 black 6 mice [2] is reported as “dramatic hair growth”. As to `CCC(C)(C)C(=O)C(=O)N1CCCC[C@H]1C(=O)SCCC(c1ccccc1)c1ccccc1` [GPI 1511], the “hair growth (Figure 5, relative hair growth index)” value in the test with C57 black 6 mice [2] was “dramatic hair growth”.
